From article PMC5132298 (PLoS ONE, 2016)
Values after ≈ are worked out from the molar mass of the structure shown. Like-named read-outs stand apart in the source and are kept apart here.

Experiments:
[1] = tested on: S. cerevisiae AD3Δ overexpressing ScErg11p6×His Y140H, native ERG11 deleted; test: MIC50 broth microdilution, strain overexpressing ScErg11p6×His Y140H; type: cell-based, Saccharomyces cerevisiae; conditions: for fold reduction in susceptibility in Y140H mutant strain: MIC50 Y140H strain versus AD3Δ wild type overexpressing strain
Protocol: (§1) The susceptibility to azole compounds of S. cerevisiae AD3Δ strains overexpressing Erg11p6×His wild type and Y140F/H, but with the native ERG11 deleted, as well as the host strain (AD2Δ) which retained the wild type ERG11 (S2 Table), were measured as MIC50 values (Table 1). […] PTZ has been reported to be a prodrug for DPZ [27]. […] There was a 3.3 fold (0.28 ± 0.02 μM) and a 4.3 fold (1.2 ± 0.2 μM) reduction in susceptibility to S-PTZ in the Y140F and Y140H mutant strains respectively. There was only a 2 fold reduction in susceptibility to R-PTZ in the Y140H mutant strain with no change seen in the Y140F strain. The PTZ metabolite, S-DPZ produced a 4.6 fold (0.073 ± 0.016 μM) and 3 fold (0.048 ± 0.009 μM) reduction is susceptibility against the Y140F and Y140H mutant strains respectively. […] Again we observed 8.3 fold (3.3 ± 0.7 μM) and 4 fold (1.6 ± 0.5 μM) reduction in susceptibility to FQZ in the Y140F and Y140H mutant strains respectively.
(§2) The susceptibilities of strains overexpressing wild type ScErg11p6×His and ScErg11p6×His Y140F/H to CYP51 inhibitors were measured as MIC50 values using broth microdilution assays as described previously.[21] The MIC50s were defined as the concentration of drug required for 50% growth inhibition compared to no drug controls.

[2] = tested on: S. cerevisiae AD3Δ overexpressing ScErg11p6×His Y140F, native ERG11 deleted; test: MIC50 broth microdilution, strain overexpressing ScErg11p6×His Y140F; type: cell-based, Saccharomyces cerevisiae; conditions: for fold reduction in susceptibility in Y140F mutant strain: MIC50 Y140F strain versus AD3Δ wild type overexpressing strain
Protocol: as §1, §2

[3] = tested on: S. cerevisiae AD3Δ overexpressing ScErg11p6×His wild type, native ERG11 deleted; test: MIC50 broth microdilution, AD3Δ strain overexpressing wild type ScErg11p6×His; type: cell-based, Saccharomyces cerevisiae; conditions: for fold more active than the R enantiomer (MIC50): S versus R enantiomer, MIC50 values for AD3Δ strains
Protocol: as §1, §2

[4] = target: T1, ScErg11p6×His (S. cerevisiae lanosterol 14α-demethylase) (Saccharomyces cerevisiae, UniProt P10614); test: Type II binding (difference spectra) to affinity purified ScErg11p6×His; conditions: for [Azole]0.5: azole concentration giving half ΔAmax, 1 µM ScErg11p6×His; for type of binding (difference spectra): azole up to 2 μM, 1 μM ScErg11p6×His; for Induced spectral shift on ligand binding Wavelength: Soret peak, (-) indicates no significant change in Soret peak wavelength; for mode of inhibition: ScErg11p6×His
T1 construct: Crystal structures of the full length S. cerevisiae lanosterol 14α-demethylase (ScErg11p6×His); 6×His (hexahistidine); made in house; host or cells: Saccharomyces cerevisiae (AD3Δ overexpression strain, native ERG11 deleted)
Protocol: Type II azole binding is characterised by a shift of the Soret peak from 417 nm to 421–424 nm in ScErg11p6×His and other cytochrome P450s. The type II difference spectra were used to detect and quantitate binding of the inhibitors S-TBZ, R-TBZ, S-PTZ, R-PTZ, S-DPZ, R-DPZ, S-oxo-PTZ and R-oxo-PTZ, FQZ, and PRZ using Ni-NTA affinity purified wild type ScErg11p6×His preparations at 1 μM. Spectral shifts, [Azole]0.5 values, Hill coefficients as well as Type II difference spectra binding curves are shown in S3 Table (selected spectra shown in S2 Fig) and Fig 6, respectively.
Samples of Ni-NTA-agarose affinity purified ScErg11p6×His were eluted with 40 mM histidine instead of imidazole as described by Warrilow et al.. Samples were washed free of the histidine and concentrated by centrifugal filtration using a 50 kDa molecular-weight cut-off Amicon Ultra-4 centrifugal filter (Millipore) to give protein with a Soret peak at 417 nm. Carbon monoxide binding was used to determine the concentration of functional cytochrome P450 for drug binding studies as described previously based on the protocol described by Guengerich et al. Saturation curves for the binding of type II ligands were determined by obtaining difference spectra for functional enzyme at 1 μM as described previously. […] All calculations were carried out using GraphPad Prism 6 Software (GraphPad Prism, San Diego, CA). [Azole]0.5 values were defined as the concentration of the azole drug that gave half ΔAmax.
Hill coefficients and Kd values were obtained by applying the Hill equation as described in Materials and methods. (-) indicates no significant change in Soret peak wavelength on exposure to the ligand. The data presented is a representative set

[5] = tested on: S. cerevisiae AD2Δ host strain (native ERG11 retained); test: MIC50 broth microdilution, AD2Δ host strain with native ERG11 retained; type: cell-based, Saccharomyces cerevisiae
Protocol: as §1, §2

[6] = tested on: Candida albicans CYP51; parameters: method as in PMID 23275516; conditions: cited from earlier work
[7] = tested on: Alternaria sonali, Fulvia fulva, Botrytis cinerea and Rhizoctonia solani; parameters: method as in PMID 23451708; conditions: 4 fungal pathogens; cited from earlier work
[8] = Y140H, ScErg11p6×His Y140H overexpressed from PDR5 locus, native ERG11 deleted, mean ± standard error
[9] = Y140F, ScErg11p6×His Y140F overexpressed from PDR5 locus, native ERG11 deleted, mean ± standard error
[10] = AD3Δ, ScErg11p6×His overexpressed from PDR5 locus, native ERG11 deleted, mean ± standard error
[11] = AD2Δ host, native ERG11 retained, mean ± standard error

T1 sequence (P10614 whole entry): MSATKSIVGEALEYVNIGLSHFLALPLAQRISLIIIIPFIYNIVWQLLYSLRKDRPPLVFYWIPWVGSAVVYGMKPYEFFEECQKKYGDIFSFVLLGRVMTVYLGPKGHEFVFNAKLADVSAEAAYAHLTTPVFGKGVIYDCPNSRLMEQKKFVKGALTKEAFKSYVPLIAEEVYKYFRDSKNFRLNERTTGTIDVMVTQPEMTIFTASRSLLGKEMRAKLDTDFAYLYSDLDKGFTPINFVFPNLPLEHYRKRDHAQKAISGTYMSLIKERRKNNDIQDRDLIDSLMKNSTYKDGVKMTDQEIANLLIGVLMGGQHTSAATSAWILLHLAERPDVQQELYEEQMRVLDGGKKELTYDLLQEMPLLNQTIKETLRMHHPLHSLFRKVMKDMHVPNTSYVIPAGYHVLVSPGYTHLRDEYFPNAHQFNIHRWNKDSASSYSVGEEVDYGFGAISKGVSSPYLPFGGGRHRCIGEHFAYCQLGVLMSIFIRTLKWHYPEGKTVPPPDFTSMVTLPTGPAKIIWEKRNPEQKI

| Structure (SMILES) | fold reduction in susceptibility in Y140H mutant strain [1] | MIC50 ([1]; Saccharomyces cerevisiae) | fold reduction in susceptibility in Y140F mutant strain [2] | MIC50 ([2]; Saccharomyces cerevisiae) | MIC50 ([3]; Saccharomyces cerevisiae) | Kd [4] | [Azole]0.5 [4] | type of binding (difference spectra) [4] | MIC50 ([5]; Saccharomyces cerevisiae) | Induced spectral shift on ligand binding Wavelength [4] | further results |
| --- | --- | --- | --- | --- | --- | --- | --- | --- | --- | --- | --- |
| O[C@@](Cc1ccccc1Cl)(Cn1cncn1)C1(Cl)CC1 [S-Prothioconazole-desthio, S-prothioconazole-desthio] | 3 fold | 0.048 ± 0.009 µM (≈ 0.015 µg/mL) | 4.6 fold | 0.073 ± 0.016 µM (≈ 0.0228 µg/mL) | 0.0157 ± 0.0003 µM (≈ 0.0049 µg/mL) | 102 ± 45 nM | 0.42 µM | type II binding | 0.006 ± 0.001 µM (≈ 0.00187 µg/mL) | – | fold more active than the R enantiomer (MIC50) [3]: 200 fold |
| OC(Cc1ccccc1Cl)(Cn1nc[nH]c1=S)C1(Cl)CC1 (stereo not shown) [PTZ, prothioconazole] | – | – | – | – | – | – | – | no binding | – | absence of a spectral shift | Kd ([6]; Candida albicans CYP51, type I difference spectra, read-out: Kd (weak type I difference spectra)): 6300 ± 1500 nM |
| CC(C)(C)[C@@](O)(CCc1ccc(Cl)cc1)Cn1cncn1 [S-Tebuconazole, S-tebuconazole] | 11.9 fold | 0.87 ± 0.06 µM (≈ 0.268 µg/mL) | 8.7 fold | 0.64 ± 0.11 µM (≈ 0.197 µg/mL) | 0.073 ± 0.015 µM (≈ 0.0225 µg/mL) | 115 ± 44 nM | 0.33 µM | type II binding | 0.0197 ± 0.0003 µM (≈ 0.00606 µg/mL) | – | fold more active than the R enantiomer (MIC50) [3]: 15 fold |
| C[C@@H]1CO[C@@](Cn2cncn2)(c2ccc(Oc3ccc(Cl)cc3)cc2Cl)O1 [2S,4R stereoisomer, 1-(((2S,4R)-2-(2-chloro-4-(4-chlorophenoxy)phenyl)-4-methyl-1,3-dioxolan-2-yl)methyl)-1H-1,2,4-triazole] | – | – | – | – | – | – | – | – | – | – | stereoselective bioactivity among DFC stereoisomers [7]: most active compound |
| O=c1[nH]cnn1CC(O)(Cc1ccccc1Cl)C1(Cl)CC1 (stereo not shown) [S-Oxo-prothioconazole, S-oxo-prothioconazole] | – | – | – | – | – | – | – | neither type I nor type II binding | – | 417(-) nm | MIC50 [1, 8]: 97 ± 3 µM (≈ 31.8 µg/mL); MIC50 [2, 9]: 87 ± 7 µM (≈ 28.6 µg/mL); MIC50 [3, 10]: 84 ± 3 µM (≈ 27.6 µg/mL); MIC50 [5, 11]: 75.0 ± 0.0 µM (≈ 24.6 µg/mL) |
| OC(Cc1ccccc1Cl)(Cn1nc[nH]c1=S)C1(Cl)CC1 (stereo not shown) [R-Prothioconazole, R-prothioconazole] | – | – | – | – | – | – | – | – | – | 417 (-) nm | fold reduction in susceptibility in Y140H mutant strain ([1]; listed as R-PTZ): 2 fold; MIC50 [1, 8]: 31 ± 4 µM (≈ 10.7 µg/mL); fold reduction in susceptibility in Y140F mutant strain ([2]; listed as R-PTZ): no change; MIC50 [2, 9]: 16 ± 4 µM (≈ 5.51 µg/mL); MIC50 [3, 10]: 16 ± 3 µM (≈ 5.51 µg/mL); MIC50 [5, 11]: 5.2 ± 1.3 µM (≈ 1.79 µg/mL) |
| O=c1c2cc(F)ccc2nc(-n2cncn2)n1-c1ccc(Cl)cc1Cl [Fluquinconazole, fluquinconazole] | 4 fold | 1.6 ± 0.5 µM (≈ 0.602 µg/mL) | 8.3 fold | 3.3 ± 0.7 µM (≈ 1.24 µg/mL) | 0.4 ± 0.05 µM (≈ 0.15 µg/mL) | 15 ± 21 nM | 0.31 µM | type II binding | 0.17 ± 0.02 µM (≈ 0.064 µg/mL) | – | mode of inhibition [4]: non-competitive inhibitors; Induced spectral shift on ligand binding Wavelength ([4]; listed as FQZ): 417 nm to ~421 |
| CC(C)(C)C(O)(CCc1ccc(Cl)cc1)Cn1cncn1 (stereo not shown) [TBZ, tebuconazole] | – | – | – | – | – | – | – | – | – | 417 nm to ~421 | mode of inhibition [4]: non-competitive inhibitors |
| O=c1[nH]cnn1CC(O)(Cc1ccccc1Cl)C1(Cl)CC1 (stereo not shown) [oxo-PTZ, oxo-prothioconazole] | – | – | – | – | – | – | – | – | – | absence of a spectral shift | – |
| OC(Cc1ccccc1Cl)(Cn1cncn1)C1(Cl)CC1 (stereo not shown) [DPZ, prothioconazole-desthio] | – | – | – | – | – | – | – | – | – | 417 nm to ~421 | mode of inhibition [4]: non-competitive inhibitors; Kd ([6]; read-out: Kd (tight type II binding), Candida albicans CYP51, type II binding): 36.4 ± 10.7 nM |
| OC(Cc1ccccc1Cl)(Cn1nc[nH]c1=S)C1(Cl)CC1 (stereo not shown) [S-Prothioconazole, S-prothioconazole] | – | – | – | – | – | – | – | – | – | 417 (-) nm | fold reduction in susceptibility in Y140H mutant strain ([1]; listed as S-PTZ): 4.3 fold; MIC50 [1, 8]: 1.2 ± 0.2 µM (≈ 0.413 µg/mL); MIC50 [2, 9]: 0.93 ± 0.0 µM (≈ 0.32 µg/mL); MIC50 [3, 10]: 0.28 ± 0.02 µM (≈ 0.0964 µg/mL); fold more active than the R enantiomer (MIC50) [3]: 57 fold; MIC50 [5, 11]: 0.077 ± 0.003 µM (≈ 0.0265 µg/mL) |
| CCCN(CCOc1c(Cl)cc(Cl)cc1Cl)C(=O)n1ccnc1 [Prochloraz, prochloraz] | 3.5 fold | 6.7 ± 0.7 µM (≈ 2.52 µg/mL) | 2.3 fold | 4.3 ± 0.8 µM (≈ 1.62 µg/mL) | 1.9 ± 0.5 µM (≈ 0.716 µg/mL) | 27 ± 24 nM | 0.30 µM | type II binding | 0.25 ± 0.02 µM (≈ 0.0942 µg/mL) | – | mode of inhibition [4]: non-competitive inhibitors; Induced spectral shift on ligand binding Wavelength ([4]; listed as PRZ): 417 nm to ~421 |
| O=c1[nH]cnn1CC(O)(Cc1ccccc1Cl)C1(Cl)CC1 (stereo not shown) [R-Oxo-prothioconazole, R-oxo-prothioconazole] | – | – | – | – | – | – | – | neither type I nor type II binding | – | 417(-) nm | MIC50 [1, 8]: 95 ± 5 µM (≈ 31.2 µg/mL); MIC50 [2, 9]: 87 ± 7 µM (≈ 28.6 µg/mL); MIC50 [3, 10]: 80 ± 2 µM (≈ 26.3 µg/mL); MIC50 [5, 11]: 75.0 ± 3.0 µM (≈ 24.6 µg/mL) |
| O[C@](Cc1ccccc1Cl)(Cn1cncn1)C1(Cl)CC1 [R-Prothioconazole-desthio, R-prothioconazole-desthio] | 2.3 fold | 7.5 µM (≈ 2.34 µg/mL) | 2.3 fold | 7.5 µM (≈ 2.34 µg/mL) | 3.2 ± 0.2 µM (≈ 0.999 µg/mL) | 54 ± 31 nM | 0.33 µM | type II binding | 0.47 ± 0.05 µM (≈ 0.147 µg/mL) | – | – |
| CC1COC(Cn2cncn2)(c2ccc(Oc3ccc(Cl)cc3)cc2Cl)O1 (stereo not shown) [Difenoconazole, difenoconazole] | 5 fold | 0.237 ± 0.003 µM (≈ 0.0963 µg/mL) | 5.2 fold | 0.243 ± 0.003 µM (≈ 0.0987 µg/mL) | 0.047 ± 0.009 µM (≈ 0.0191 µg/mL) | – | – | – | 0.0147 ± 0.0003 µM (≈ 0.00597 µg/mL) | – | – |
| CC(C)(C)[C@](O)(CCc1ccc(Cl)cc1)Cn1cncn1 [R-Tebuconazole, R-tebuconazole] | – | 5.2 ± 1.3 µM (≈ 1.6 µg/mL) | – | 2 ± 0.2 µM (≈ 0.616 µg/mL) | 1.1 ± 0.3 µM (≈ 0.339 µg/mL) | 65 ± 35 nM | 0.30 µM | type II binding | 0.12 µM (≈ 0.0369 µg/mL) | – | – |
